Laboratory results: US20060106102A1, “Napththalene derivatives which inhibit the cytokine or biological activity of microphage migration inhibitory factor (mif)” (priority 2002, published 2006)
pEC50: −log10 of the molar value. Values joined by “and” are separate entries in the source; they are usually repeats but may differ in a detail not shown here. Identical values can stand only once. Like-named read-outs stand apart in the source and are kept apart here.

Legend:
[1] = tested on: LPS-induced IL-1 release from peritoneal macrophages; test: LPS-induced interleukin 1 release from murine peritoneal macrophages, ELISA; format: cell-based, C57BL6/J mice
Description: C57BL6/J male mice were injected intraperitoneally with 2ml of thioglycollate. Five (5) days later peritoneal macrophages were collected by ravaging the peritoneum of anaesthetized mice with 3 ml of cold Hanks buffered saline solution. Cells from several mice were pooled, washed and re-suspended in DMEM supplemented with 5% FCS. Cells were plated in 96 well plastic tissue culture plates at 1×10^5 cells/well. Cells were treated with compound or vehicle for 1 hour in a 5% CO2 incubator at 37° C. Cells were then treated with LPS (10 ng/ml) and incubated for 24 hours. After 24 hours, 50 μl of supernatant from each well was carefully removed and transferred to ELISA plates. The concentration of interleukin 1 (IL-1 ) was measured by ELISA. The concentration of compound at which LPS-induced cytokine release was suppressed by 50% compared to vehicle-only-treated cells (EC50) was calculated using Prism® software. FIG. 13 and Table 8 provide the data for compound 6 tested in this assay.

[2] = tested on: IL-1-induced COX-2 expression; test: IL-1-induced COX-2 expression in S112 human dermal fibroblasts (MIF-dependent event), flow cytometry; format: cell-based
Procedure, shortened: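 Human dermal fibroblasts seeded at 10^5 cells/ml in RPMI/0.1% BSA for 18 h, then IL-1 stimulated with or without compound. Saponin-permeabilised cells stained with anti-COX-2 mAb plus FITC secondary; flow cytometry MFI, negative control subtracted, duplicates. Result is % inhibition of IL-1-induced MFI, mean or mean±SEM.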

[3] = tested on: murine endotoxic shock model (LPS); test: murine endotoxic shock model, serum cytokines by ELISA; format: in vivo; conditions: mice
Description: The activity of 6,7-dihydroxynaphthalene-3-sulfonic acid (compound 6) was studied in the murine endotoxic shock model. This model has been previously shown to be dependent on MIF (35). […] Endotoxaemia was induced by intra-peritoneal injection of lipopolysaccharide (LPS) (15 mg/kg) in 400 μl saline. Mice were treated with a saline solution (control) only, a saline solution and LPS, or LPS and 6,7-dihydroxynaphthalene-2-sulfonic acid (compound 6) at a dose of 15 mg/kg body weight by intra-peritoneal injection at 24 hours, 12 hours and 1 hour before intra-peritoneal LPS injection. After 1.5 or 6 hours mice were humanely killed by CO2 inhalation then neck dislocation. Serum was obtained from blood obtained by cardiac puncture prior to death and measured for cytokines including interleukin 1 (IL-1) and interleukin 6 (IL-6) by ELISA. The production of IL-1 and IL-6 has been previously shown to be dependent on MIF (36).
The effect of compounds was further tested under a variety of conditions in animals exposed to endotoxic shock induced as above by the injection of 15 mg/kg LPS by intraperitoneal injection. In each case, compounds were administered by intraperitoneal injection at a dose of 15 mg/kg. Compound administration was associated with reductions in serum cytokine concentration under a variety of administration regimens.

[4] = tested on: antigen-specific T cell activation (splenic T lymphocytes from mBSA-immunised mice); test: antigen-specific (mBSA) activation of splenic T lymphocytes in vitro, 3H-thymidine incorporation; format: cell-based, C57BL6/J mice; conditions: Mus musculus, T-cell, read-out: EC50 (T cell activation suppressed by 50% compared to vehicle-only-treated cells)
Procedure, shortened: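 Splenocytes from mBSA-immunised mice, erythrocytes lysed, stimulated with mBSA 10–50 μg/mL for 30 h at 37 °C, 5% CO2. 3H-thymidine (0.5 μCi/well) then added for 18 h; proliferation read by scintillation counting.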

Structure (SMILES): O=S(=O)(O)c1ccc2cc(O)c(O)cc2c1 [Compound 6, 6,7-dihydroxynaphthalene-2-sulfonic acid]
- inhibition of macrophage IL-1 release, dose-response (FIG. 13) ([1]; LPS 10 ng/ml, p<0.02): marked and statistically significant inhibition of macrophage IL-1 release
- pEC50 ([1]; Mus musculus, Peritoneal macrophage, [LPS] 10 ng/mL, 24 hours, read-out: EC50 (LPS-induced IL-1 release suppressed by 50%)): 4.57
- inhibition of IL1-induced COX-2 expression, dose response (FIG. 3) ([2]; 0.01, 0.1, 1.0, 10 and 50 μM): Dose-dependent inhibition
- inhibition at 1 µM ([2]; Homo sapiens, Fibroblast, compound 1 uM, IL-1 0.1 ng/ml, 6 hours, S112 cells, read-out: % inhibition of IL-1-induced COX2 expression (Effect)): 16.4%
- inhibition at 10 µM ([2]; Homo sapiens, Fibroblast, compound 10 uM, IL-1 0.1 ng/ml, 6 hours, S112 cells, read-out: % inhibition of IL-1-induced COX2 expression (Effect)): 22.4%
- inhibition at 25 µM ([2]; Homo sapiens, Fibroblast, compound 25 uM, IL-1 0.1 ng/ml, 6 hours, S112 cells, read-out: % inhibition of IL-1-induced COX2 expression (Effect)): 21.3%
- inhibition at 50 µM ([2]; Homo sapiens, Fibroblast, compound 50 uM, IL-1 0.1 ng/ml, 6 hours, S112 cells, read-out: % inhibition of IL-1-induced COX2 expression (Effect)): 25.7%
- inhibition at 100 µM ([2]; Homo sapiens, Fibroblast, compound 100 uM, IL-1 0.1 ng/ml, 6 hours, S112 cells, read-out: % inhibition of IL-1-induced COX2 expression (Effect)): 24.4%
- % inhibition (IL-1 induced COX-2 expression) ([2]; Table 2 experiment 1: compound alone, 50 μM): 38.0%
- Serum TNF, LPS plus compound ([3]; compound 15 mg/kg i.p. at −18 h before LPS 15 mg/kg i.p.): 3970 ± 2565 pg/mL
- Serum IL-6, LPS plus compound ([3]; compound 15 mg/kg i.p. at −24 h, −1 h before LPS 15 mg/kg i.p.): 150 ± 19 ng/mL and 104 ± 11 ng/mL
- serum IL-1, LPS plus compound ([3]; compound 15 mg/kg i.p. at −24 h, −12 h, −1 h before LPS 15 mg/kg i.p.): 257 ± 70 ng/mL
- pEC50 ([4]; mBSA 10 μg/ml): 4.66
- pEC50 ([4]; mBSA 50 μg/ml): 3.98
